Data reported in patent EP4436951B1, “USE OF AURANTIAMIDE ACETATE IN THE TREATMENT OF HYPERTENSION” (Akdeniz Universitesidoner Sermaye Isletme Mudurlugu, priority 2021, dated 2023).

Columns and labels:
[1] = cited from earlier work; for decrease in concentrations: 4 hours after administration; for decrease in concentrations / time to maximum plasma concentration / accumulation in tissues: rats; for decrease in concentrations / accumulation in tissues: oral; for toxic effects: administrations up to 100mg/kg; for time to maximum plasma concentration: oral administration of Portulaca oleracea L extracts
[2] = tested on: 2K-1C renovascular hypertension; assay: Blood pressure by non-invasive tail-cuff method in rats, Goldblatt two kidneys single clip (2K-1C) hypertension model; format: in vivo, Wistar rats
Source text: (§1) 5 experimental groups were formed to observe the effects of aurantiamide acetate. Eight […] male Wistar rats were used in each group. The experimental groups created are as follows: • 1. Control group, • 2. SHAM operated (the abdominal cavity is opened and closed by suturing again without any procedure) group, • 3. Aurantiamide acetate (ASP) administered group, • 4. Hypertension (HT) group, • 5. Hypertension+aurantiamide acetate (HT+ASP) administered group.
Hypertension was induced in rats with the Goldblatt model with two kidneys and a single clip (2K-1C). In this model, no operation was performed on the right kidney. The left renal artery was narrowed to 0.22 mm in diameter. In the surgical hypertension model created, renin secretion by the kidney with decreased blood flow led to increased angiotensin II (ANG II) formation and therefore an increase in blood pressure. Sodium excretion by the intact contralateral kidney increases as blood pressure increases (pressure natriuresis), therefore, there was no sodium retention. The rats were anesthetized intraperitoneally before the operation. In the creation of the hypertension model, 90 mg/kg ketamine and 10 mg/kg xylazine were administered intraperitoneally for anesthesia. After anesthesia, the abdomens of the rats were shaved and disinfected with betadine. After disinfection, a midline incision was made and the left kidney was exposed. The left renal artery was isolated from the renal vein, and to induce 2K-1C renovascular hypertension, the circumference of the left renal artery was narrowed gently to 0.22 mm in diameter by 5/0 non-absorbable silicone-coated silk sutures The same procedure was applied to SHAM operated group rats, but the left renal artery was not narrowed. Postoperatively, the peritoneum was sutured with 3/0 absorbable polyglycan suture and the skin layer was sutured with 3/0 non-absorbable silk suture. In the hypertension model, it was waited for 1 week to observe the increase in blood pressure in the hypertension and hypertension+aurantiamide acetate groups, and then blood pressure was measured.
The blood pressures of the animals were measured by the non-invasive tail-cuff method. An occlusive cuff and a piezoelectric impact sensor are placed around the tail. Arterial blood pressure measurements were taken weekly at the same time of day (9:00 am to 12:00 am) to avoid influencing the circadian cycle. Basal blood pressure was measured after delivery of each rat, and blood pressures were recorded regularly every week for 4 weeks until sacrifice. The data acquisition system reported blood pressure (mmHg) as systolic, diastolic, and mean. Each measurement was repeated three times and the average of these three data was taken.
(§2) Aurantiamide acetate was applied to the ASP and HT+ASP groups among the experimental groups. A 100 mM stock was prepared by dissolving 10 mg of aurantiamide acetate in 225 µl of dimethyl sulfoxide (DMSO). For 200 g rat, µl of aurantiamide acetate was administered in 100 µl. Weekly 2.5 mg/kg of aurantiamide acetate was administered intraperitoneally for 4 weeks, 0.5 mg/kg daily, 5 days a week. In total, each rat was given 10 mg/kg of aurantiamide acetate. To eliminate the effects of daily intraperitoneal (i.p.) injection; equal volumes (100 µl) of i.p.DMSO were injected into the rats of control group, SHAM-operated group, and hypertension group. Changes in body weight, blood pressure values, erythrocyte deformability, vascular isolation, and vascular tone were investigated in the experimental groups during the experiment.
Blood pressure values were examined in the experimental groups during the experimental period.

erythrocytes = assay: Erythrocyte deformability by ektacytometer (laser diffraction) after 4-week treatment; format: in vivo, Wistar rats; settings: 37°C
Source text: as §1
Aurantiamide acetate was applied to the ASP and HT+ASP groups among the experimental groups. A 100 mM stock was prepared by dissolving 10 mg of aurantiamide acetate in 225 µl of dimethyl sulfoxide (DMSO). For 200 g rat, µl of aurantiamide acetate was administered in 100 µl. Weekly 2.5 mg/kg of aurantiamide acetate was administered intraperitoneally for 4 weeks, 0.5 mg/kg daily, 5 days a week. In total, each rat was given 10 mg/kg of aurantiamide acetate. […]
Erythrocyte deformability was measured in the experimental groups. […] Erythrocyte deformability was evaluated by laser diffraction analysis at various fluid shear forces. […] Thus, the deformability of erythrocytes in response to increased shear forces was determined. […] The erythrocyte deformability was calculated by the system as an elongation index. Elongation index (EI) values were measured between nine shear forces (0.30 - 75.02 Pa). […]

Thoracic Aorta = assay: Vascular tone of isolated thoracic aorta rings in organ bath after 4-week treatment (KCl, Phe, ACh and SNP protocols); format: in vivo, Wistar rats
Source text: as §1, §2
Vascular isolation was investigated in the experimental groups. The rats in all experimental groups were anesthetized with intraperitoneal ketamine/xylazine (45 mg/kg ketamine and 10 mg/kg xylazine) anesthesia at the end of the 4-week experimental period. After their abdomens were opened, blood was drawn from their abdominal aorta to obtain plasma as well as for use in measuring deformability, and rats were sacrificed by anemia. The thoracic aorta was quickly opened and the thoracic aorta was separated from the other tissues, and removed. As soon as the thoracic aorta tissue is removed, it was taken into a beaker containing Krebs solution (110 mM sodium chloride (NaCl), 5 mM potassium chloride (KCI), 24 mM sodium bicarbonate (NaHCO3), 1 mM mono potassium phosphate (KH2PO4), 1 mM magnesium sulfate heptahydrate (MgSO4.7H2O), 2.5 mM calcium chloride (CaCl2), 10 mM glucose, 0.02 mM ethylenediamine tetraacetic acid (EDTA); pH=7.4). After the tissue was washed with cold Krebs, the dissection stage was started. For the microdissection stage, the thoracic aorta, taken in a petri dish containing cold Krebs, is fixed to the medium, and fat and connective tissue were removed from the artery at the appropriate magnification by using a dissecting microscope. The isolated thoracic aorta is divided into rings of appropriate length. In addition, the rest of the aorta tissue was removed and stored under appropriate conditions for histological and biochemical parameters. Vascular tone was evaluated in the experimental groups. Vascular tone in the experimental groups was analyzed as in the previous work of the project team. After the isolated thoracic aorta is divided into 2 - 2.5 mm long rings; it was gasified with a gas mixture containing 95% O2 - 5% CO2, and it was placed in an organ bath with 10 ml of Krebs solution at 37°C and pH 7.4. After the vessel rings are attached to the isometric transducer by means of a tight rope by hanging them on steel wires, they were washed every 15 minutes under 1 gram relaxation tension and rested for a total of 60 minutes. If the tension changed after each wash, attention was paid to bring it back to 1 gram of tension. After a one-hour relaxation tension (rest period), the vitalization stage, which is the prepulse stage, was applied to the vessels. For this process, after applying Krebs solution containing 20 mM potassium chloride (KCI), phenylephrine (Phe) was added at a concentration of 10^-7 M. This process was repeated 3 times in succession. After the vitalization procedure, the vessels were washed with Krebs solution and an additional 30-minute resting period was started. […]

[3] = Change in body weight during the administration period; format: in vivo, Wistar rats; settings: between the experimental groups, Day 0 and end of 4th week
Source text: as §1
as §2, with “Changes in body weight, blood pressure values, erythrocyte deformability, vascular isolation, and vascular tone were investigated in the experimental groups during the experiment.” left out
The initial weights of the rats were measured in the range of 180-200 g. The weights of each rat before the experiment (Day 0) and after the experiment (at the end of the 4th week) were recorded. […]

[4] = aurantiamide acetate group (no hypertension) vs control and SHAM, p>0.05

Compound: O=C(N[C@@H](Cc1ccccc1)C(=O)N[C@H](CO)Cc1ccccc1)c1ccccc1 [aurantiamide]
- decrease in concentrations [1]: approximately 90%
- toxic effects [1]: No toxic effects
- time to maximum plasma concentration [1]: approximately 12 minutes
- accumulation in tissues [1]: no long-term accumulation

Compound: CC(=O)OC[C@H](Cc1ccccc1)NC(=O)[C@H](Cc1ccccc1)NC(=O)c1ccccc1 [aurantiamide acetate]
- mean arterial blood pressure ([2]; ASP group (no hypertension), second week, compared with control and SHAM operated groups, p<0.05, 0.5 mg/kg daily i.p., 5 days a week): significantly lower
- mean arterial blood pressure ([2]; ASP group (no hypertension), third week, compared with control group, p<0.05, 0.5 mg/kg daily i.p., 5 days a week): significantly lower
- mean arterial blood pressure ([2]; HT+ASP group, last week (week 4), compared to HT group, p<0.001): significant decrease
- mean arterial blood pressure ([2]; HT+ASP group, second week, compared to HT group, p<0.001, 0.5 mg/kg daily i.p., 5 days a week): significant decrease
- mean arterial blood pressure ([2]; HT+ASP group, second week, compared with control, SHAM and ASP groups, p<0.001): significantly higher
- mean arterial blood pressure ([2]; HT+ASP group, third week, compared to HT group, p<0.001): significant decrease
- mean arterial blood pressure ([2]; HT+ASP group, third week, compared with ASP group only, p<0.001): significantly higher
- mean arterial blood pressure ([2]; HT+ASP group, week 4, no difference from control, SHAM and ASP groups (p>0.05)): reduced to basal levels
- mean arterial blood pressure ([2]; within ASP group according to the weeks, p>0.05): did not show a significant difference
- erythrocyte deformability, Elmax values (erythrocytes; [4]): no difference
- erythrocyte deformability (erythrocytes; hypertension + aurantiamide acetate group compared to hypertension group, p<0.01): significant increase
- ACh-mediated relaxation response (endothelium-dependent) (Thoracic Aorta; [4]): no difference
- Phe-mediated contractile response (Thoracic Aorta; [4]): no differences
- SNP-mediated relaxation response (endothelium-independent) (Thoracic Aorta; [4]): no statistical difference
- KCl-mediated contractile response (Thoracic Aorta; aurantiamide acetate group (no hypertension) vs control, SHAM and hypertension groups, 20, 40 and 80 mM KCl, p>0.05): no differences
- Phe-mediated contractile response (Thoracic Aorta; hypertension+aurantiamide acetate group compared to hypertension group, p<0.05 and p<0.001): significantly reduced
- SNP-mediated relaxation response (endothelium-independent) (Thoracic Aorta; hypertension+aurantiamide acetate group compared to hypertension group, p>0.05): no difference
- KCl-mediated contractile response (Thoracic Aorta; hypertension+aurantiamide acetate group compared to the other groups, increasing KCl concentrations, p<0.001): significantly lower
- ACh-mediated relaxation response (endothelium-dependent) (Thoracic Aorta; hypertension+aurantiamide acetate group vs hypertension group, p<0.05 and p<0.01): improvement
- body weights before and after [3]: no significant difference
- decrease in concentrations [1]: approximately 90%
- toxic effects [1]: No toxic effects
- time to maximum plasma concentration [1]: approximately 12 minutes
- accumulation in tissues [1]: no long-term accumulation
